In patent US11285161B2, “Method and composition for treating mental disorder and pain associated with nerve damage” (City University of Hong Kong, priority 2019, dated 2022):

Tests used:
[1] = system: spared nerve injury (SNI) mice; assay: Body weight of SNI mice; type: in vivo, mouse; settings: 30 ng/kg Day 7-Day 30, Day 40, vs SNI-saline, FIG. 1B
Excerpt: (§1) The antidepressant and analgesic activities of the compound of formula (IIb) (referred to as YM022) and the compound of formula (IIIb) (referred to as YF476) were investigated in a mouse model of spared nerve injury (SNI). The SNI model is a partial denervation model in which the injured nerves produce consistent pain hypersensitivity in the territory of the spared sural nerve, wherein the spared nerve injury can provoke depressive-like behaviors. In the experiment, depressive-like behaviors were assessed by a tail suspension test and monitoring body weight. Responses to pain were tested by measuring the sensitivity to mechanical stimulation by von Frey filaments.
(§2) For the SNI surgery, the mice were anesthetized by intraperitoneal injection of ketamine (100 mg/kg) and xylazine (15 mg/kg). […]
(§3) After SNI surgery (Day 0), the mice were treated with the compound of formula (IIb) (referred to as YM022) and the compound of formula IIIb (referred to as YF476), both at 30 ng/kg, for 24 days (Day 7-Day 30). The bodyweight of the mice were measured (FIG. 1B) and the tail suspension test (FIG. 1A) was carried out on Day 40 to assess the depressive status. […] A blinded observer monitored the test for 6 min and recorded the immobility time.

[2] = target: T1, CCK2 receptor (Homo sapiens, UniProt P32239); settings: cited from earlier work
T1 sequence (P32239 1-447): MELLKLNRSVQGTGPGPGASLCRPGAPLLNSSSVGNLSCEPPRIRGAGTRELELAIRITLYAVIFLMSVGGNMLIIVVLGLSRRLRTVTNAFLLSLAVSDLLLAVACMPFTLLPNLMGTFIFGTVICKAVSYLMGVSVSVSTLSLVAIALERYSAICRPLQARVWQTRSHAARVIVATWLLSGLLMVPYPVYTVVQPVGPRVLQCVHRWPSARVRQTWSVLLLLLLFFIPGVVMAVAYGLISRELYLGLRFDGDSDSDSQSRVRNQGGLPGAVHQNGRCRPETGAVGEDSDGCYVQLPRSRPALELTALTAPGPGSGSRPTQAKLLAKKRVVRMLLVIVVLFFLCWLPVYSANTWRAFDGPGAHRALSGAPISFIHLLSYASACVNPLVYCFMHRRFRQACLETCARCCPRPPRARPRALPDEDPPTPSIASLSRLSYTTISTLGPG

[3] = target: T1, CCK2 receptor
[4] = system: spared nerve injury (SNI) mice; assay: Von Frey filament test in SNI mice; type: in vivo, mouse; settings: Day 8 (after drug injection), FIG. 2
Excerpt: as §1
For the SNI surgery, the mice were anesthetized by intraperitoneal injection of ketamine (100 mg/kg) and xylazine (15 mg/kg). The skin on the lateral surface of the left thigh was cleaned and incised, and then sterile scissors were used to expose three branches of the sciatic nerves: namely sural, common peroneal, and tibial nerves. […]
The Von Frey filament test was used 1 day before the surgery (Day-1) or on Day 1, Day 7 (after drug injection), Day 8 (after drug injection) to estimate the sensitivity of the mice to the mechanical stimulation. […] Response in three out of five stimuli was regarded as a positive reaction and the threshold level was recorded (FIG. 2).

[5] = system: spared nerve injury (SNI) mice; assay: Tail suspension test in spared nerve injury (SNI) mice; type: in vivo, mouse; settings: 30 ng/kg Day 7-Day 30, tested Day 40 (10 days after discontinuation), vs SNI-saline and Sham-saline, FIG. 1A
Excerpt: as §1, §2, §3

[6] = system: mice; assay: Acute forced swim test; type: in vivo, mouse; settings: 30 μg/kg intraperitoneally 30 minutes before test, 5-minute test, vs saline, FIG. 3B
Experimental: In the forced swim test, mice were forced to swim in a narrow cylinder from which they cannot escape. A Plexiglas cylinder (13 cm diameter and 24 cm high) containing water (22° C.±2° C.) to a depth of 10 cm was used. The mice were injected intraperitoneally with YM022 (30 μg/kg), YF476 (30 μg/kg) or saline 30 minutes before the test. After placing the animals in the cylinders, the duration of immobility during the 5-minute test were measured.

[7] = target: T2, CCK1 receptor (Homo sapiens, UniProt P32238); settings: read-out: IC50 to the CCK1 receptor; cited from earlier work
T2 sequence (P32238 1-428): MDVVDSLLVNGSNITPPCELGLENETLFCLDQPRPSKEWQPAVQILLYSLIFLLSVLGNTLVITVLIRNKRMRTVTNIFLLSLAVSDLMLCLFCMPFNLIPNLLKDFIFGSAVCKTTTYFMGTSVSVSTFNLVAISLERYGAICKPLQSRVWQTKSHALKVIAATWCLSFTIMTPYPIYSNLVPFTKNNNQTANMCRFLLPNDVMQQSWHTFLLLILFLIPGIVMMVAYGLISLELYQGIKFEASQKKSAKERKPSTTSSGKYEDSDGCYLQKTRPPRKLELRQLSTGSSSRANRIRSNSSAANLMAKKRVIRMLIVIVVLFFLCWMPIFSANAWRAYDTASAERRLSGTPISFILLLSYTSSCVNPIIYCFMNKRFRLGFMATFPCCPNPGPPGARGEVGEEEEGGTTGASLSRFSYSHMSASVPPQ

[8] = system: mice; assay: Acute tail suspension test; type: in vivo, mouse; settings: 3 μg/kg or 30 μg/kg intraperitoneally 30 minutes before test, vs saline, FIG. 3A
Experimental: After SNI surgery (Day 0), the mice were treated with the compound of formula (IIb) (referred to as YM022) and the compound of formula IIIb (referred to as YF476), both at 30 ng/kg, for 24 days (Day 7-Day 30). The bodyweight of the mice were measured (FIG. 1B) and the tail suspension test (FIG. 1A) was carried out on Day 40 to assess the depressive status. In the tail suspension test, each mouse was suspended by its tail and secured by adhesive tape to the suspension bar. A blinded observer monitored the test for 6 min and recorded the immobility time.
In another acute tail suspension test, mice were injected intraperitoneally with YM022 (3 μg/kg or 30 μg/kg), YF476 (3 μg/kg or 30 μg/kg) or saline 30 minutes before the test. The tail suspension test was then performed as described above.

## CNc1cccc(NC(=O)N[C@@H]2N=C(c3ccccn3)c3ccccc3N(CC(=O)C(C)(C)C)C2=O)c1 [YF476]
[1]
  body weight: increased body weight
[2]
  IC50: 0.11 nM
[3]
  selectivity CCK2 versus CCK1 receptor: selectively inhibit CCK2 receptors
[4]
  mechanical threshold in Von Frey filament test: higher mechanical threshold
[5]
  immobile time in tail suspension test: reduced immobile time
[6]
  immobile time in forced swim test: less immobile time
[7]
  IC50: 500 nM
[8]
  immobile time in acute tail suspension test: less immobile time

## Cc1cccc(NC(=O)N[C@@H]2N=C(c3ccccc3)c3ccccc3N(CC(=O)c3ccccc3C)C2=O)c1 [YM022]
[1]
  body weight: increased body weight
[2]
  IC50: 0.07 nM
[3]
  selectivity CCK2 versus CCK1 receptor: selectively inhibit CCK2 receptors
[4]
  mechanical threshold in Von Frey filament test: higher mechanical threshold
[5]
  immobile time in tail suspension test: reduced immobile time
[6]
  immobile time in forced swim test: less immobile time
[7]
  IC50: 63 nM
[8]
  immobile time in acute tail suspension test: less immobile time
